The values below come from paper PMC8037569, “Neuroprotective Effect of Aurantio-Obtusin, a Putative Vasopressin V1A Receptor Antagonist, on Transient Forebrain Ischemia Mice Model” (International Journal of Molecular Sciences, 2021).

Broadly, the inhibition is the drop in the measured response relative to a control, in per cent. The IC50 is the concentration at which inhibition is half-maximal.

For assay [1], the target named is T1, h5-HT1AR (Homo sapiens, UniProt P08908).
T1 construct: host or cells: Ba/F3 (murine pro-B)
T1 sequence (P08908 1-422): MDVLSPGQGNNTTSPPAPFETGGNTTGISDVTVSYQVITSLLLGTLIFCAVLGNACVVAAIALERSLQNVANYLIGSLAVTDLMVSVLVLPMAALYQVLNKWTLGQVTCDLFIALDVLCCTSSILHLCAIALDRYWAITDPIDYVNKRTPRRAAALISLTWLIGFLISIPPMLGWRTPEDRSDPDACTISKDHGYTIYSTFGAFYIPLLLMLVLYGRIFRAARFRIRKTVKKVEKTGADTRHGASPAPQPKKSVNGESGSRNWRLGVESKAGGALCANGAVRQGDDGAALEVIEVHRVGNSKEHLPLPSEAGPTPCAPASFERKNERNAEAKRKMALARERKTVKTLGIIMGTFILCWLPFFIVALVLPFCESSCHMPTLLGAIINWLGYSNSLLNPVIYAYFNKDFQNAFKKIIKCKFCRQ
The experiment in a line: GPCR functional assay: intracellular Ca2+ mobilization in Ba/F3 cells. The class given is cell-based. For orientation: A change in cytosolic calcium serves as a functional read-out for many receptors and channels.

In assay [2] the target is T2, hV1AR (Homo sapiens, UniProt P37288).
T2 construct: host or cells: CHO
T2 sequence (P37288 whole entry): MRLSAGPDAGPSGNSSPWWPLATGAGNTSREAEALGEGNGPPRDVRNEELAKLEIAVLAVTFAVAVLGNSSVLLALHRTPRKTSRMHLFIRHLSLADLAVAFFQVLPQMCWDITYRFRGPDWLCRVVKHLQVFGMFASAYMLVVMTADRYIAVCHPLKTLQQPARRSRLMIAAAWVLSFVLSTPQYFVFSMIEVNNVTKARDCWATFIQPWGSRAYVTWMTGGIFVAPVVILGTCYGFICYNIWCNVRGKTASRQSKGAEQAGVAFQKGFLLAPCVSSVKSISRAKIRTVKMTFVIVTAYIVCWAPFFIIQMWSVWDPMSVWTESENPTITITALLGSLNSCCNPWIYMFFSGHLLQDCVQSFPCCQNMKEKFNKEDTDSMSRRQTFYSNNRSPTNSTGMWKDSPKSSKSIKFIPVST
Put plainly: GPCR functional assay: intracellular Ca2+ mobilization in transfected CHO cells. The class given is cell-based.

For assay [3], the system named is C57BL/6 mice. The experiment in a line: Nissl staining, severity of neuronal damage after transient forebrain ischemia (BCCAO). The class given is in vivo, mouse. To be noted: 10 mg/kg, p.o., vs BCCAO group, score 0 to 3, n = 6/group. Here is the method: Male C57BL/6 mice (22–26 g, 7 weeks) were purchased from the Orient Co. Ltd., a branch of Charles River Laboratories (Seoul, Korea), and kept in the University Animal Care Unit for 1 week prior to the experiments. The animals were housed five per cage, allowed access to water and food ad libitum; the environment was maintained at a constant temperature (23 ± 1 °C) and humidity (60 ± 10%) under a 12-h light/dark cycle (the lights were on from 07:30 to 19:30 h). Forty mice were divided equally into four groups (sham + vehicle, n = 10; sham + drug, n = 10; bilateral common carotid artery occluded ischemia + vehicle, n = 10; bilateral common carotid artery occluded ischemia + drug, n = 10) for experiment. The treatment and maintenance of the animals were carried out in accordance with the Animal Care and Use Guidelines of Dong-A University, Korea. All in vivo experiments were performed according to the protocols approved by the Institutional Animal Care and Use Committee of Dong-A University (approved protocol numbers: DIACUC-approved-17-20) and were in accordance with the National Institutes of Health guidelines.
C57BL/6 mice were anesthetized with 2.0% isoflurane and 70% nitrous oxide in oxygen and subjected to transient forebrain ischemia. The transient forebrain ischemia was induced by bilateral common carotid artery occlusion (BCCAO) with aneurysm clips for 20 min, and the circulation was restored by removing the clips. Mice that received the same surgical operation without carotid artery clipping served as sham-operated controls. During the surgical procedure, the rectal temperature was maintained at 37 ± 0.5 °C with a heating pad (Biomed S.L., Barcelona, Spain). The regional cerebral blood flow (rCBF) was monitored using laser Doppler flowmetry (Perimed, PF5010, JarFalla, Sweden). […] After reperfusion, the animals were placed in a warm incubator (32–33 °C) and returned to their home cages. Aurantio-obtusin, which was dissolved in 10% Tween 80 solution, was administered from 1 h to 7 days after BCCAO (10 mg/kg, p.o., once daily).
One day after the test trial of passive avoidance test, mice were anesthetized with Zoletil 50® (10 mg/kg, i.m.) and then perfused transcardially with a 100 mM phosphate buffer (pH 7.4) followed by ice-cold 4% paraformaldehyde. The brains of the mice were removed and post-fixed in a phosphate buffer (50 mM, pH 7.4) containing 4% paraformaldehyde overnight, then immersed in a 30% sucrose solution (in 50 mM phosphate-buffered saline, PBS), and stored at 4 °C until sectioned. The frozen brains were coronally sectioned on a cryostat at 30 μm and then stored in a storage solution (30% ethylene glycol, 30% glycerin, and 20 mM phosphate buffer) at 4 °C. Hippocampal sections were collected based on the mouse brain atlas.
After the sections were mounted onto gelatin-coated slides, they were stained with 0.5% cresyl violet, dehydrated through graded alcohols (70, 80, 90, and 100% × 2), placed in xylene, and covered with a coverslip after the addition of Histomount media. The number of cells in selected regions (medial CA1, mCA1; dorsal CA1, dCA1; CA2; cortex) were determined using a computerized image analysis system (Leica Microsystems AG, Wetzlar, Germany). The cells were counted in six sections by every eight sections interval (total 48 sections) per animal by a person blind to the treatment group, and the average cell count per section was computed. The degree of damage by the Nissl staining after ischemia was semiquantitatively scored from 0 to 3 (0, normal; 1, <30% of the neurons were irreversibly damaged; 2, 30–60% of the neurons were irreversibly damaged; 3, 60–100% of the neurons were irreversibly damaged).

SMILES strings stand for the structures.

As to `COc1c(O)cc2c(c1O)C(=O)c1c(cc(C)c(O)c1OC)C2=O` [Aurantio-obtusin, 1,3,7-trihydroxy-2,8-dimethoxy-6-methylanthracene-9,10-dione], the “% Stimulation (agonist effect) of control agonist response, 5-HT1A (h)” value in assay [1] (100 µM test compound, control response to serotonin (2.5 μM)) is −6.10 ± 0.00%. For the same compound, the inhibition at 100 µM in assay [1] (BaF3, read-out: % Inhibition (antagonist effect) of control agonist response, 5-HT1A (h) (converted)) was 10.1%. In addition, the “% Stimulation (agonist effect) of control agonist response, V1A (h)” value in assay [2] (100 µM test compound, control response to 1 μM AVP) was −33.20 ± 2.69%. Also, in assay [2] (CHO, 100 µM test compound, control response to 10 nM AVP, read-out: % Inhibition (antagonist effect) of control agonist response, V1A (h) (converted)), the inhibition at 100 µM was 71.8%. Besides, the IC50 in assay [2] (concentrations up to 100 µM, control response to 10 nM AVP, read-out: V1AR antagonist effect IC50) came out at 67.7 ± 2.41 µM. Also, in assay [3], the “Severity of neuronal damage in CA2” value is “not in CA2 region”, the “Severity of neuronal damage in cortex” value is “significantly reduced the severity of damage”, the “Severity of neuronal damage in dCA1” value is “significantly reduced the severity of damage” and the “Severity of neuronal damage in mCA1” value is given as “significantly reduced the severity of damage”. Moreover, in assay [3] (listed as Aurnatio-obtusin), the “Severity of neuronal damage in cortex” value is given as “significantly reduced the severity”, the “Severity of neuronal damage in dCA1” value is “significantly reduced the severity” and the “Severity of neuronal damage in mCA1” value is “significantly reduced the severity”.
